Assay results: patent US12083113B2, “Use of neuronal nitric oxide synthase inhibitors for immunotherapy in melanoma patients” (Northwestern University, priority 2018, dated 2024)

Experiments:
[1] = tested on: Sk-mel-28 cells; experiment: Cytotoxicity in Sk-mel-28 cells; type: cell-based, human
[2] = tested on: A375 cells; experiment: Cytotoxicity in A375 cells; type: cell-based, human
[3] = tested on: Human A375 metastatic melanoma xenograft; experiment: A375 melanoma xenograft, IFN-γ with or without MAC-3-190; type: in vivo, nude mice; conditions: for PD-L1-positive staining in xenograft tumors (immunohistochemistry): 21-day treatment, IFN-γ 1000 units per mouse i.p. daily, with or without MAC-3-190 5 mg/kg/day
Protocol: FIG. 6. […] Data was represented as mean±SD.
FIG. 7. Expression of PD-L1 in xenograft tumor samples obtained from the subject is administered an inhibitor of NOS and further is administered study detected by immunohistochemistry staining. PD-L1 staining (brown) of specimens at 100× (A) and 20× (B) magnification. […] . PD-L1 (C) and CD8 (D) stained specimens captured at 2× magnification.
In Vivo Xenograft Melanoma. […] .

[4] = tested on: PD-L1 in A375 melanoma cells; experiment: Cell surface PD-L1 expression by flow cytometry; type: cell-based, human; conditions: for MFI of PD-L1 staining obtained via flow cytometry: IFN-γ alone or with MAC-3-190 (3 μM), 72-hour treatment; for cell surface expression of PD-L1: interferon alone, three cell lines
Protocol: FIG. 4. […] Three melanoma cell lines were treated with 250 units/mL of interferons for 48 hours. Whole cell lysates were collected and subjected to RPPA assay. […] Red, high expression; green, low expression. All the data points were normalized for protein loading and transformed to linear value. […] Cell surface expression of PD-L1 was determined by flow cytometry. Representative histograms out of two independent experimental replicates are shown. C) IFN-α or IFN-γ (100 Units/ml); D-E) IFN-α or IFN-γ (250 Units/ml).
Expression levels of PD-L1 detected by Flow Cytometry.

[5] = tested on: PD-L1 in A375 cells; experiment: PD-L1 expression by immunofluorescence staining; type: cell-based, human; conditions: for extracellular expression of PD-L1: interferon alone, 250 Units/ml
Protocol: FIG. 5. Expression of PD-L1 in metastatic melanoma A375 cells detected by immunofluorescence staining. […]. Cells were then fixed and permeabilized with 4% formaldehyde and methanol. Samples were blocked in blocking buffer containing 5% horse serum for 1 hour. The slides were then allowed to incubate in a 1:50 PD-L1 antibody dilution overnight at 4° C. and DAPI reagent for 1 hour. Representative images are shown stained with PD-L1 antibody (green) and DAPI (blue fluorescence). (Original magnifications, 100×). Representative images for 2 experimental replicates are shown.
Expression levels of PD-L1 detected by Immunofluorescence. A375 cells were plated on coverslips and incubated with 250 units/mL of IFN-α or IFN-γ in the presence or absence of […] of nNOS inhibitors for 72 hours. After treatment, cells on coverslips were fixed with 4% formaldehyde/PBS for 15 minutes at room temperature, followed by incubation with ice-cold 100% methanol for 10 minutes at −20° C. Samples were then incubated in blocking buffer (1×PBS, 5% horse serum, 0.3% Triton X-100) for 60 minutes, then in a 1:50 PD-L1 antibody dilution in dilution buffer (1×PBS, 1% BSA, 0.3% Triton X-100) overnight at 4° C. Stained specimens were rinsed with PBS then cured in the dark with DAPI fluorescence staining reagent for 1 hour. Slides were visualized and recorded using the BZ-X700 microscope (Keyence, Itasca, IL).

[6] = tested on: WM115, Sk-mel-28 and A375; experiment: Reverse Phase Protein Array in three human melanoma cell lines; type: cell-based; conditions: 250 units/mL interferon; for PD-L1 expression level (RPPA): average of three cell lines
Protocol: FIG. 4. A) Heat map of Reverse Phase Protein Array (RPPA) showing distinct effects of IFN-α and IFN-γ on protein expression levels in three human melanoma cell lines (WM115, Sk-mel-28 and A375). Three melanoma cell lines were treated with 250 units/mL of interferons for 48 hours. Whole cell lysates were collected and subjected to RPPA assay. […] Red, high expression; green, low expression. All the data points were normalized for protein loading and transformed to linear value. […] Average changes of three cell lines detected by RPPA were shown in the figure. *, p<0.05 in comparison to control and IFN-α. C-E) Induction of PD-L1 by IFN-γ was diminished by the co-treatment of nNOS inhibitors. […]. Cell surface expression of PD-L1 was determined by flow cytometry. Representative histograms out of two independent experimental replicates are shown. C) IFN-α or IFN-γ (100 Units/ml); D-E) IFN-α or IFN-γ (250 Units/ml).
Reverse Phase Protein Array. Plated cells were treated with 250 units/mL of IFN-α or IFN-γ for […]. After washing with 1×PBS, lysis buffer (1% Triton X-100, 50 mM HEPES, pH 7.4, 150 mM NaCl, 1.5 mM MgCl2, 1 mM EGTA, 100 mM NaF, 10 mM Na pyrophosphate, 1 mM Na3VO4, 10% glycerol and 1% PIC) was added to the plates, followed by incubation on ice for 20 minutes with occasional shaking. Samples were then collected via scraping and spun down at 14,000 g^−1 for 10 minutes at 4° C. The protein concentration was then quantified by Bradford method and adjusted to 1.5 μg/μL with lysis buffer. Cell lysates were then mixed with 4×SDS sample buffer (40% glycerol, 8% SDS, 0.25M Tris-HCl, pH 6.8 with 10% BME). Miniscule amounts of serially diluted protein samples were then dotted on a nitrocellulose coated slide and probed with validated primary antibodies and a biotin-conjugated secondary antibody. The signals were amplified using Dako-Cytomation-Catalyzed system (Dako) and visualized by diaminobenzidine (DAB) colorimetric reaction. Dilution curves were fitted with Supercurve Fitting and the protein expressions normalized for protein loading.

[7] = tested on: STAT1; experiment: Western blot of STAT1 in A375 cells; type: cell-based, human; conditions: interferon alone
Protocol: (§1) FIG. 3. […] A375 cells were treated with 100 units/mL and 250 units/mL of IFN-γ or IFN-α for 24 hours; whole cell lysates and nuclear extracts were used for Western blot analysis to detect STAT3 and pSTAT3 respectively. […] Protein isolation and Western blotting. All samples were kept at 4° C. unless otherwise noted.
(§2) The membranes were blocked using 10% non-fat milk (NOS1, STAT1/2, Actin, Lamin A/C) or 5% bovine serum albumin (BSA; SH3057402; Fisher Scientific, Waltham, MA) (p-STAT1/3), then incubated with primary antibodies for 1 hour at room temperature or overnight at 4° C., followed by secondary antibodies for 1 hour at room temperature as recommended by the manufacturer. Blots were washed extensively with TBS-T after each antibody incubation.

[8] = tested on: nNOS expression in WM3211 cells; experiment: Western blot of nNOS expression in primary melanoma WM3211 cells; type: cell-based, human; conditions: IFN-γ persisted after 96 hours, IFN-α within 4 hours, recovered by 24 hours
Protocol: (§3) FIG. 2. A-C) Effects of IFN-α and IFN-γ treatment on nNOS expression levels in human primary melanoma WM3211 cells (A-B) and metastatic melanoma A375 cells. C) Distinct effects of IFN-α and IFN-γ on nNOS expression of A375 metastatic melanoma cells. A375 cells were treated with 500 units/mL of IFN-α or IFN-γ for 48 hours and whole cell lysates were collected. Samples were subjected to Western blot analysis for nNOS. A control of the protein loading was performed by detecting actin. D) Intracellular nitric oxide levels detected by microplate reader using DAF-FM fluorescence probe after IFN-α or IFN-γ treatment for 24 hours. E) IFN-γ-inducible nNOS expression was abrogated in nNOS-depleted melanoma cells. A375 cells transfected with shRNA-nNOS were treated with IFN-γ for 24 hours, followed by Western blot analysis.
Protein isolation and Western blotting. All samples were kept at 4° C. unless otherwise noted. […]
Equal amounts of protein, as detected by Bradford assay, were loaded and resolved on 7.5% SDS-polyacrylamide gels, then transferred to Immobilon-P^SQ polyvinylidene difluoride (PVDF) membranes (ISEQ00010; Merck KGaA, Darmstadt, Germany). […] Labeled bands were detected using SuperSignal horseradish peroxidase chemiluminescence reagents (1859674; 1859675; Thermo Fisher Scientific, Waltham, MA) and images were captured and analyzed using the Bio-Rad ChemiDoc XRS^+ System.

[9] = tested on: intracellular NO in melanoma cells; experiment: Intracellular nitric oxide levels, DAF-FM fluorescence probe; type: cell-based, human; conditions: DAF-FM probe after interferon exposure
Protocol: as §3
Detection of intracellular nitric oxide levels. Cultured cells in a 96-well plate were treated with 100 units/mL of IFN-α or IFN-γ for 48 hours. Once the incubation period was complete, the media was removed and replaced with Hank's Balanced Salt Solution (HBSS). 1 μM of 4-Amino-5-methylamino-2′,7′-difluorofluorescein (DAF-FM) probe was added to each condition and fluorescence levels produced by DAF-FM were detected using a fluorescence microplate reader with excitation and emission wavelengths of 485 and 538 nm, respectively.

[10] = tested on: A375 human melanoma xenograft; experiment: A375 melanoma xenograft, HH044 20 mg/kg (Example 2)
[11] = tested on: human melanoma cell lines (A375, Sk-Mel-28, wm3211); experiment: Cytotoxicity by MTT colorimetric analysis in human melanoma cell lines; type: cell-based; conditions: read-out: Cytotoxicity (IC50 from 3 melanoma cell lines)
Protocol: Table 1. […] All the NOS isozymes used were recombinant enzymes overexpressed in E. coli. Ki values are calculated directly using known literature methods and detailed in co-PI R. Silverman's published manuscripts (17, 18, 64, 85). Cytotoxic effects of nNOS inhibitors in human melanoma were detected by MTT colorimetric analysis (85). The IC50 values are the average of at least two human melanoma cell lines.

[12] = tested on: STAT3; experiment: Western blot of STAT3 and phospho-STAT3 in A375 cells; type: cell-based, human; conditions: A375 cells exposed to interferon, 24 hours
Protocol: as §1
Nuclear and cytosolic protein extraction is described elsewhere (84). Cells were collected via centrifugation and re-suspended in buffer A (10 mM HEPES, pH 7.9, 10 mM KCl, 0.150 mM MgCl2, 0.5 mM DTT, 0.2 mM PMSF) with 1% PIC and allowed to swell for 10 minutes. 10% NP-40 was added and vortexed to lyse the cells. […] Buffer D (20 mM HEPES, 20% glycerol, 50 mM KCl, 0.5 mM EDTA, 0.5 mM DTT, and 0.2 mM PMSF) was then added to dilute the nuclear sample.
as §2

[13] = tested on: A375 metastatic melanoma cells; experiment: Matrigel invasion assay; type: cell-based, human; conditions: compared to control, p<0.05
Protocol: (§4) FIG. 1. A) Effect of IFN-γ on melanoma invasion potential detected by matrigel invasion assay. The represented data were from A375 metastatic melanoma cells treated with IFN-γ. *, p<0.05 compared to control. B) Adhesion analysis. A375 melanoma cells were seeded on top of fibroblast monolayer and incubated with IFN-γ for 1 hour, followed by MTT assay. *, p<0.05 compared to control.

[14] = tested on: A375 melanoma cells; experiment: Adhesion of melanoma cells to fibroblast monolayer; type: cell-based, human; conditions: incubated 1 hour, MTT assay
Protocol: as §4

N.N.[Cl][Pt][Cl] [cisplatin] gave an IC50 [1] of 14.3 µM and an IC50 [2] of 4.2 µM.

In the case of CNCc1cccc(CCc2ccc3c(C)cc(N)nc3c2)c1 [MAC-3-190], the “PD-L1 expression in xenograft tumors” value ([3]; 10 mg/kg/day) is reported as “significantly reduced”, the “PD-L1-positive staining in xenograft tumors (immunohistochemistry)” value [3] is reported as > 15% and the “induction in tumor volume by IFN-γ, end of study” value ([3]; co-treatment, 5 mg/kg subcutaneously injected daily, p<0.05 compared to IFN-γ treatment) is reported as “effectively diminished”. For the same molecule, the “MFI of PD-L1 staining obtained via flow cytometry” value ([4]; A375 cells) was 1.9 folds of control, the “Induction of PD-L1 by IFN-γ, cell surface expression” value ([4]; A375 cells, co-treatment with nNOS inhibitor 3 μM, 72 hours) was “diminished” and the “IFN-γ-inducible PD-L1 expression” value ([5]; co-treatment with 3 μM, IFN-γ 250 Units/ml, 72 hours) was “significantly diminished”. For the same molecule, the “basal level of PD-L1” value ([5]; treatment with inhibitor alone, compared to control) was “did not alter”.

IFN-α was tested, and the “PD-L1 expression level (RPPA)” value [6] was “absent”, the “cell surface expression of PD-L1” value [4] was “reduced” and the “expression of STAT1” value [7] was “increase”. For the same molecule, the nNOS expression levels [8] was “undetectable levels”, the “intracellular NO levels” value [9] was “significantly decreased” and the “extracellular expression of PD-L1” value ([5]; 72 hours) was “low basal expression”.

N=C(Nc1ccc(CCNCc2cccc(NC(=N)c3cccs3)c2)cc1)c1cccs1 [HH044] was tested, and the “lung, liver, and kidney weights” value ([10]; 20 mg/kg/day for 21 days) was “no significant changes”, the body weight ([10]; 20 mg/kg/day for 21 days, 23.9 g in control group) was 22.6 g and the “reduction in body weight” value ([10]; 20 mg/kg/day, not statistically significant (p>0.05)) was < 10%. The IC50 [11] was 5.27 ± 3.3 µM.

B1: IFN-γ: Interferon-gamma, purchased from Invitrogen (protein, UniProt P01579 24-161, looked up)
Interferon gamma: QDPYVKEAENLKKYFNAGHSDVADNGTLFLGILKNWKEESDRKIMQSQIVSFYFKLFKNFKDDQSIQKSVETIKEDMNVKFFNSNKKKRDDFEKLTNYSVTDLNVQRKAIHELIQVMAELSPAAKTGKRKRSQMLFRG
In the case of B1, the Phospho-STAT3 levels [12] is reported as 1.9 folds of control, the “expression levels of STAT3” value [12] is reported as 1.6 folds of control and the melanoma invasion potential [13] is reported as “significantly enhanced”. For the same molecule, the “c-Myc and HIF-1α expression levels (RPPA)” value [6] was “Increased”, the “PD-L1 expression level (RPPA)” value [6] was 1.8 fold of control and the “PD-L1-positive staining in xenograft tumors (immunohistochemistry)” value [3] was > 20%. The “tumor growth in vivo” value ([3]; IFN-γ 1000 units/day, 21 days) was “significantly stimulated”, the “MFI of PD-L1 staining obtained via flow cytometry” value ([4]; A375 cells) was 3.3 folds of control and the “cell surface expression of PD-L1” value [4] was “increased”. For the same molecule, the “expression of STAT1” value [7] was “higher induction”, the nNOS expression levels [8] was “markedly induced” and the “adhesion capacity of melanoma cells to fibroblast cells” value [14] was “significantly enhanced”. The “intracellular NO levels” value [9] was “elevated” and the “extracellular expression of PD-L1” value ([5]; 72 hours) was “markedly induced”.
